Tests used:
[1] = tested on: Candida albicans; test: Therapeutic treatment of chronic Candida albicans infection; assay type: in vivo, female Balb/c mice infected with Candida albicans; settings: for Urine infected with C. albicans d19 / Urine infected with C. albicans d24 / Kidneys infected with C. albicans / Necrotic kidneys: days 3-15; for Urine infected with C. albicans d19: day 19; for Urine infected with C. albicans d24: day 24; for Kidneys infected with C. albicans / Necrotic kidneys: day 26
Protocol: Increase in the Resistance of Balb/c Mice to Infection with Candida albicans
(a) Therapeutic treatment
For the therapeutic treatment of chronic Candida albicans infection, female Balb/c mice (16/group) were infected intravenously with Candida albicans (2.5×10^5 cfu/mouse) (day 0). After the infection had taken place, the animals were treated intraperitoneally on 13 consecutive days (days 3-15) with the test substance obtained as in Example 7; the concentrations were 0.5, 2.0, 5.0, 10.0, 30.0 and 60.0 mg/kg. The control animals received administrations of physiological saline solution. Urine was collected from the animals on days 19 and 24, and the organism count was determined. On day 26, the animals were sacrificed, and the organism count and the necroses in the kidneys were determined.

[2] = tested on: mouse peritoneal macrophages; test: Release of lysosomal hydrolase enzymes from peritoneal macrophages of treated mice; assay type: in vivo, NMRI mice; settings: for N-Ac-Glu % release: N-acetyl-β-D-glucosaminidase; for β-Gal % release: β-galactosidase; for β-Glu % release: β-glucuronidase
Protocol: (§1) This entailed investigation of the effect of the test substance obtained as in exemplary embodiment 7 on the stimulation of peritoneal macrophages in 6-8 week old NMRI mice. Female mice received the test substance in parenteral or oral doses of 25 mg/kg, 50 mg/kg, 100 mg/kg and 200 mg/kg. Buffered saline solution was administered to a control group. The mice were sacrificed three days after the injections, and the peritoneal macrophages of the animals were examined for their state of activation. The secretion of the lysosomal enzymes (β-galactosidase, β-glucuronidase and N-acetyl-β-D-glucosaminidase) was determined as one measure of macrophage activation. […] The level of oxidative metabolism in macrophages is taken as another measure of their state of activation. This activity is measured with the assistance of a biolumate by determination of the chemiluminescence.
(§2) For this purpose, either 3×10^6 macrophages were cultured with 1 ml of TC 199 culture medium in Petri dishes of diameter 30 mm or 10^6 macrophages were cultured with 100 μl of medium in round-bottomed polyethylene tubes (for determination of the chemiluminescence), with 5% CO2 and at 37° C.
(§3) After incubation for one hour, the cultures were washed to remove floating cells. The chemiluminescence (tube culture) was then determined directly, whereas the Petri dishes were incubated for a further 24 hours at 37° C. and then the enzyme and pinocytosis activities in the cultures were determined.
It can be seen from Table 3 that macrophages from control mice release only small amounts of lysosomal enzymes (β-glucuronidase, β-galactosidase and N-acetyl-β-D-glucosaminidase) into the culture supernatant. […] It is evident that the test substance has a stimulant action on macrophage activity and contributes to an increase in enzyme release.

[3] = tested on: macrophages; test: Stimulation of macrophage activity (exocytosis / lysosomal enzyme activity), relative to the compound from Example 7; assay type: in vivo, NMRI mice; settings: 100 mg/kg, 1 × i.p. day 0; relative to Example 7 = 100%
Protocol: as §1, §2, §3
NMRI mice were treated with the compounds according to the invention as described in experiment 2.
The macrophage function (chemiluminescence and enzyme activity) was checked as a test to determine the immunostimulation.
It can be seen from the table that in comparison with macrophages from untreated animals, the chemiluminescence reaction of these cells was also greatly stimulated by all the test substances, and their content of lysosomal enzymes was markedly raised.

[4] = tested on: cellular immune response (DTH reaction) to sheep erythrocytes; test: Delayed type hypersensitivity (DTH) foot swelling reaction to sheep erythrocytes; assay type: in vivo, female NMRI mice; settings: mice, i.p. and p.o.
Protocol: Effect On The Cellular Immunological Reaction, of the Delayed Type, to Sheep Erythrocytes (Delayed Type Hypersensitivity, DTH)
Either 10^6 or 10^9 red blood cells from sheep were administered intravenously to each animal in groups of 5 female NMRI mice weighing 18-20 g. Sheep erythrocytes are regarded in immunology as a standard test substance (antigen) for the induction of cellular and humoral immune reactions. In particular, this test provides information about the functioning of the T-cell-dependent component (T-helper cells) of the immune system. The test substance obtained as in exemplary embodiment 7 ([2-(3-carboxy-1-propylthio)-4 -methyl-1,3-thiazol-5-yl]acetic acid) was administered intraperitoneally and perorally, respectively, in the concentrations 10-100 mg/kg in physiological saline solution on days -3, -2, -1 and 0.After 5 days, each animal received 2×10^8 sheep erythrocytes injected into the underside of the foot and, 24 hours later, the swelling of the foot was measured. The foot swelling is induced by a skin reaction of the delayed type (delayed type hypersensitivity, DTH) and is, as is known to the expert, a measure of the cellular immune response (Collins, F. M. and Mackaness, G. B., J. Immunol. 101, 830-845, 1968). […]

In the case of `Cc1nc(SCCCC(=O)O)sc1CC(=O)O` [Example 7, [2-(3-Carboxy-1-propylthio)-4-methyl-1,3-thiazol-5-yl]acetic acid], the “Urine infected with C. albicans d19” value ([1]; 0.5 mg/kg i.p.) is reported as 0%, the “Urine infected with C. albicans d24” value ([1]; 0.5 mg/kg i.p.) is reported as 6% and the “Kidneys infected with C. albicans” value ([1]; 0.5 mg/kg i.p.) is reported as 27%. For the same molecule, the Necrotic kidneys ([1]; 0.5 mg/kg i.p.) was 27%, the “Urine infected with C. albicans d19” value ([1]; 2.0 mg/kg i.p.) was 6% and the “Urine infected with C. albicans d24” value ([1]; 2.0 mg/kg i.p.) was 6%. For the same molecule, the “Kidneys infected with C. albicans” value ([1]; 2.0 mg/kg i.p.) was 13%, the Necrotic kidneys ([1]; 2.0 mg/kg i.p.) was 7% and the “Urine infected with C. albicans d19” value ([1]; 5.0 mg/kg i.p.) was 0%. For the same molecule, the “Urine infected with C. albicans d24” value ([1]; 5.0 mg/kg i.p.) was 7%, the “Kidneys infected with C. albicans” value ([1]; 5.0 mg/kg i.p.) was 27% and the Necrotic kidneys ([1]; 5.0 mg/kg i.p.) was 47%. The “Urine infected with C. albicans d19” value ([1]; 10.0 mg/kg i.p.) was 7%, the “Urine infected with C. albicans d24” value ([1]; 10.0 mg/kg i.p.) was 21% and the “Kidneys infected with C. albicans” value ([1]; 10.0 mg/kg i.p.) was 29%. For the same molecule, the Necrotic kidneys ([1]; 10.0 mg/kg i.p.) was 43%, the “Urine infected with C. albicans d19” value ([1]; 60.0 mg/kg i.p.) was 13% and the “Urine infected with C. albicans d24” value ([1]; 60.0 mg/kg i.p.) was 13%. For the same molecule, the “Kidneys infected with C. albicans” value ([1]; 60.0 mg/kg i.p.) was 38%, the Necrotic kidneys ([1]; 60.0 mg/kg i.p.) was 31% and the “dose for optimal action in chronic Candida albicans infection” value ([1]; therapeutic i.p. treatment, mice) was 0.5 to 5.0 mg/kg. For the same molecule, the N-Ac-Glu % release ([2]; 25 mg/kg, 1 × i.p.) was 17.2%, the N-Ac-Glu % release ([2]; 25 mg/kg, 1 × p.o.) was 15.4% and the N-Ac-Glu % release ([2]; 50 mg/kg, 1 × i.p.) was 26.0%. It also gave a N-Ac-Glu % release ([2]; 50 mg/kg, 1 × p.o.) of 22.8%, a N-Ac-Glu % release ([2]; 100 mg/kg, 1 × i.p.) of 40.8% and a N-Ac-Glu % release ([2]; 100 mg/kg, 1 × p.o.) of 37.3%. It also gave a N-Ac-Glu % release ([2]; 200 mg/kg, 1 × i.p.) of 51.5%, a N-Ac-Glu % release ([2]; 200 mg/kg, 1 × p.o.) of 45.2% and a β-Gal % release ([2]; 25 mg/kg, 1 × i.p.) of 24.1%. The β-Gal % release ([2]; 25 mg/kg, 1 × p.o.) was 20.4%, the β-Gal % release ([2]; 50 mg/kg, 1 × i.p.) was 33.5% and the β-Gal % release ([2]; 50 mg/kg, 1 × p.o.) was 26.9%. For the same molecule, the β-Gal % release ([2]; 100 mg/kg, 1 × i.p.) was 52.9%, the β-Gal % release ([2]; 100 mg/kg, 1 × p.o.) was 43.6% and the β-Gal % release ([2]; 200 mg/kg, 1 × i.p.) was 65.4%. For the same molecule, the β-Gal % release ([2]; 200 mg/kg, 1 × p.o.) was 54.8%, the β-Glu % release ([2]; 25 mg/kg, 1 × i.p.) was 20.0% and the β-Glu % release ([2]; 25 mg/kg, 1 × p.o.) was 17.5%. The β-Glu % release ([2]; 50 mg/kg, 1 × i.p.) was 30.9%, the β-Glu % release ([2]; 50 mg/kg, 1 × p.o.) was 25.1% and the β-Glu % release ([2]; 100 mg/kg, 1 × i.p.) was 42.8%. It also gave a β-Glu % release ([2]; 100 mg/kg, 1 × p.o.) of 38.2%, a β-Glu % release ([2]; 200 mg/kg, 1 × i.p.) of 58.2% and a β-Glu % release ([2]; 200 mg/kg, 1 × p.o.) of 49.8%. For the same molecule, the “Macrophage activity: Exocytosis, relative activity” value [3] was 100% and the “dose for optimum stimulation of the cellular immune response” value [4] was 20 to 40 mg/kg.

Source: patent publication US4762848A, “1,3-thiazoles and their use as immunomodulators” (Hoechst Aktiengesellschaft, priority 1985, dated 1988)
